The values that follow come from US12570631B2, “Substituted N-(4-(pyrimidin and pyridin-4-yl)benzylcarboxamides and its use for treating disorders responsive to inhibition of Btk” (BIOGEN MA INC., priority 2019, dated 2026).

SMILES strings stand for the structures. Where only a bound is given, the exact number is not on record here.

BTK, sequence (Q06187 whole entry): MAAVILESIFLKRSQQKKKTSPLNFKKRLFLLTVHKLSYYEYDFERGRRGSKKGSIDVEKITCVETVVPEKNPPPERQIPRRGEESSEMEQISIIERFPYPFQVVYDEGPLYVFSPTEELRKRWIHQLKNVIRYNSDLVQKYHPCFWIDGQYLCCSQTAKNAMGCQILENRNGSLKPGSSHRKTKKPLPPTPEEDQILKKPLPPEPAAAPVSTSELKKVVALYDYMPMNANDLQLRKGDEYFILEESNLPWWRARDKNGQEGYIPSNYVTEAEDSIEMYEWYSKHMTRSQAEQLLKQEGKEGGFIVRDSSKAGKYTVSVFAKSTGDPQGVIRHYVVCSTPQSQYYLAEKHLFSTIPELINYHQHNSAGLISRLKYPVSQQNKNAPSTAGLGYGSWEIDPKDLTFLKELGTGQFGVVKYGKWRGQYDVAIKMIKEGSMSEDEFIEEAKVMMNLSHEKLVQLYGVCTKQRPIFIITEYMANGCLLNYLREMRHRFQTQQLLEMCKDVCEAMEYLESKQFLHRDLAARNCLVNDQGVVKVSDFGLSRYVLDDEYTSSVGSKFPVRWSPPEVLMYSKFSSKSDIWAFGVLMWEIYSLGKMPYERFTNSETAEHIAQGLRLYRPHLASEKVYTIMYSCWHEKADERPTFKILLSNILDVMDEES

The first experiment deals with CD69 expression on CD19+ B cells in human whole blood. Put plainly: In vitro whole blood CD69 assay. The experiment is classed as cell-based. The following applies: B-cell; Whole Blood CD69 inhibition; human heparinized blood, anti-human IgD stimulation, CD19+ B cells expressing CD69; read-out: IC50.
Take `C=CC(=O)N1CC[C@@H](Oc2cnccc2-c2ccc(CNC(=O)c3cn(C(C)(C)C)nn3)c(C)c2)C1` (single isomer, unassigned) [Example 35]: the IC50 (as a rule, the concentration needed to halve the response being measured) is > 1000 nM.

As to `C=CC(=O)N1CC[C@H](Oc2cnccc2-c2ccc(CNC(=O)c3cn(C(C)(C)C)nn3)c(C)c2)C1` (single isomer, unassigned) [Example 36], the IC50 is > 1000 nM.

A further experiment concerns the target BTK (Homo sapiens (Human), UniProt Q06187). Put plainly: In vitro BTK kinase assay: Btk-PolyGAT-LS assay. The experiment is classed as biochemical. The following applies: ATP 10 μM, polyGAT 100 nM, BTK 0.25 nM, 30 minutes.
For `C=CC(=O)N1CC[C@@H](Oc2cnccc2-c2ccc(CNC(=O)c3cn(C(C)(C)C)nn3)c(C)c2)C1` (single isomer, unassigned) [Example 35], the IC50 is > 10 nM.

The compound `C=CC(=O)N1CC[C@H](Oc2cnccc2-c2ccc(CNC(=O)c3cn(C(C)(C)C)nn3)c(C)c2)C1` (single isomer, unassigned) [Example 36] gave an IC50 of 1 to 10 nM.

Take `C=CC(=O)N(C)CCOc1cnccc1-c1ccc(CNC(=O)c2noc(C(C)(C)C)n2)cc1F` [Example 13, 5-(tert-butyl)-N-(3-fluoro-4-(3-(2-(N-methylacrylamido)ethoxy)pyridin-4-yl)benzyl)-1,2,4-oxadiazole-3-carboxamide]: the IC50 is < 1 nM.

On to `C=CC(=O)N(C)CCOc1cnccc1-c1ccc(CNC(=O)c2noc(C(C)(C)C)n2)c(C(F)(F)F)c1` [Example 14, 5-(tert-butyl)-N-(4-(3-(2-(N-methylacrylamido)ethoxy)pyridin-4-yl)-2-(trifluoromethyl)benzyl)-1,2,4-oxadiazole-3-carboxamide], for which the IC50 was < 1 nM.

With `C=CC(=O)N(C)CCOc1cnccc1-c1ccc(CNC(=O)c2ccn(C(C)(C)C)n2)c(Cl)c1F` [Example 15, 1-(tert-butyl)-N-(2-chloro-3-fluoro-4-(3-(2-(N-methylacrylamido)ethoxy)pyridin-4-yl)benzyl)-1H-pyrazole-3-carboxamide], the IC50 was 1 to 10 nM.

Turning to `C=CC(=O)N(C)CCOc1cnccc1-c1ccc(CNC(=O)c2cc(C(C)(C)C)on2)c(C)c1` [Example 16, 5-(tert-butyl)-N-(2-methyl-4-(3-(2-(N-methylacrylamido)ethoxy)pyridin-4-yl)benzyl)isoxazole-3-carboxamide], the IC50 was < 1 nM.

In the case of `C=CC(=O)N(C)CCOc1cnccc1-c1ccc(CNC(=O)c2cc(C(C)(C)C)on2)c(F)c1F` [Example 17, 5-(tert-butyl)-N-(2,3-difluoro-4-(3-(2-(N-methylacrylamido)ethoxy)pyridin-4-yl)benzyl)isoxazole-3-carboxamide], the IC50 is < 1 nM.

In the case of `C=CC(=O)N(C)CC(=O)Nc1cncnc1-c1ccc(CNC(=O)c2cn(C(C)(C)C)nn2)c(C)c1` [Example 29, 1-(tert-butyl)-N-(2-methyl-4-(5-(2-(N-methylacrylamido)acetamido)pyrimidin-4-yl)benzyl)-1H-1,2,3-triazole-4-carboxamide], the IC50 is < 1 nM.

Consider `C=CC(=O)NCC(=O)Nc1cncnc1-c1ccc(CNC(=O)c2cn(C(C)(C)C)nn2)c(C)c1` [Example 30, N-(4-(5-(2-acrylamidoacetamido)pyrimidin-4-yl)-2-methylbenzyl)-1-(tert-butyl)-1H-1,2,3-triazole-4-carboxamide], for which the IC50 lay in the range of 1 to 10 nM.

As for `C=CC(=O)N1CCC(Oc2cnccc2-c2ccc(CNC(=O)c3cn(C(C)(C)C)nn3)c(C)c2)C1` (stereo not drawn) [Example 34, N-(4-(3-((1-acryloylpyrrolidin-3-yl)oxy)pyridin-4-yl)-2-methylbenzyl)-1-(tert-butyl)-1H-1,2,3-triazole-4-carboxamide], the IC50 is > 10 nM.

In turn, `C#CC(=O)N1CCCC1COc1cnccc1-c1ccc(CNC(=O)c2cn(C(C)(C)C)nn2)c(C)c1F` (stereo not drawn) [Example 48, 1-(tert-butyl)-N-(3-fluoro-2-methyl-4-(3-((1-propioloylpyrrolidin-2-yl)methoxy)pyridin-4-yl)benzyl)-1H-1,2,3-triazole-4-carboxamide] came in with an IC50 of 1 to 10 nM.

Turning to `C=CC(=O)N1CCC(COc2cnccc2-c2ccc(CNC(=O)c3cn(C(C)(C)C)nn3)c(C)c2F)C1` (stereo not drawn) [Example 51, N-(4-(3-((1-acryloylpyrrolidin-3-yl)methoxy)pyridin-4-yl)-3-fluoro-2-methylbenzyl)-1-(tert-butyl)-1H-1,2,3-triazole-4-carboxamide], the IC50 is < 1 nM.

For `C=CC(=O)N1CC[C@H]1COc1cnccc1-c1ccc(CNC(=O)c2ccc(C(F)(F)F)nc2)c(C)c1` [Example 52, (S)-N-(4-(3-((1-acryloylazetidin-2-yl)methoxy)pyridin-4-yl)-2-methylbenzyl)-6-(trifluoromethyl)nicotinamide], the half-inhibitory concentration (IC50) is > 10 nM.
